Data on 18 compounds can be found in patent US9227971B2, “Pyrazolo[1,5-a]pyrimidine compounds as mTOR inhibitors” (Merck Sharp & Dohme Corp., priority 2010, dated 2016).

The subject of test [1] is phosphorylated 4E-BP1 Thr37/46 (p4E-BP1 Thr37/46), mTORC1 activity, PC3 cells. Nature of the test: mTOR target engagement assay, immunofluorescent cell-based, p4E-BP1 Thr37/46 readout (mTORC1 activity). The conditions noted are these: read-out: p4E-BP1 Thr37/46 IC50. Put shortly: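 PTEN-mutant PC3 prostate cells were treated with serially diluted compound in 5% FBS F12 medium (0.25% DMSO) for ninety minutes at 37° C, glyoxal-fixed, then immunostained overnight at 4° C for p4E-BP1 Thr37/46 with an Alexa Fluor 488 secondary. IC50 came from four-parameter fits of fluorescence, DMSO-only wells defining 100%.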

Test [2] has as its system phosphorylated AKT Ser473 (pAKT S473), mTORC2 activity, PC3 cells. Kind of test: mTOR target engagement assay, immunofluorescent cell-based, pAKT S473 readout (mTORC2 activity). Summed up:
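After blocking, cells were stained overnight at 4 °C with anti-pAKT S473 antibody, then a fluorescent secondary; inhibition was read as reduced fluorescence intensity.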

[3] abbreviates: Homo sapiens, PC-3, PC3 cells, compound treatment ninety minutes at 37° C.
The mark [4] stands for this setting: Homo sapiens, PC-3, Table 6-1, PC3 cells.
Where [5] appears, read: Homo sapiens, PC-3, Table 3-1, PC3 cells.

Read-outs that look alike come from different tables or passages of the source. Some results are limits rather than exact numbers.

`COc1c(F)cc(-c2ccc(-c3cnn4c(N)c(C(C)=O)c([C@@H]5C[C@H]6CC[C@@H](C5)N6C(=O)c5nnc[nH]5)nc34)cn2)cc1F` [Compound 1.1.64, 1-(5-((1R,3s,5S)-8-(4H-1,2,4-triazole-3-carbonyl)-8-azabicyclo[3.2.1]octan-3-yl)-7-amino-3-(6-(3,5-difluoro-4-methoxyphenyl)pyridin-3-yl)pyrazolo[1,5-a]pyrimidin-6-yl)ethanone]: the IC50 in test [1] (setting [3]) and in test [2] (setting [3]) was 100 to 1000 nM each time.
As for `CC(=O)N1[C@@H]2CC[C@H]1C[C@H](c1nc3c(-c4ccc(-c5ncc(C)s5)nc4)cnn3c(N)c1S(C)(=O)=O)C2` [Compound 3.182, 1-((1R,3s,5S)-3-(7-amino-6-(methylsulfonyl)-3-(6-(5-methylthiazol-2-yl)pyridin-3-yl)pyrazolo[1,5-a]pyrimidin-5-yl)-8-azabicyclo[3.2.1]octan-8-yl)ethanone], the IC50 lay within 100 to 1000 nM in test [1] (Table 3-1, PC3 cells) and 100 to 1000 nM in test [2] (Table 3-1, PC3 cells).
Regarding `CCc1c([C@@H]2C[C@H]3CC[C@@H](C2)N3C(=O)CO)nc2c(-c3ccc(-c4ncc[nH]4)nc3)cnn2c1N` [Compound 6.5, 1-((1R,3s,5S)-3-(3-(6-(1H-imidazol-2-yl)pyridin-3-yl)-7-amino-6-ethylpyrazolo[1,5-a]pyrimidin-5-yl)-8-azabicyclo[3.2.1]octan-8-yl)-2-hydroxyethanone], the IC50 in test [1] (setting [4]) and in test [2] (setting [4]) was 1 to 100 nM throughout.
As for `CC(=O)c1c([C@@H]2C[C@H]3CC[C@@H](C2)N3C(=O)CO)nc2c(-c3ccc(C(N)(C(F)(F)F)C(F)(F)F)nc3)cnn2c1N` [Compound 7.81, 1-((1R,3s,5S)-3-(6-acetyl-7-amino-3-(6-(2-amino-1,1,1,3,3,3-hexafluoropropan-2-yl)pyridin-3-yl)pyrazolo[1,5-a]pyrimidin-5-yl)-8-azabicyclo[3.2.1]octan-8-yl)-2-hydroxyethanone], the IC50 is 1000 to 10000 nM in test [1] (Homo sapiens, PC-3, PC3 cells) and more than 10000 nM in test [2] (Homo sapiens, PC-3, PC3 cells).
As to `CCNC(=O)N1[C@@H]2CC[C@H]1C[C@H](c1nc3c(-c4ccc(-c5ccccc5F)nc4)cnn3c(N)c1S(C)(=O)=O)C2` [Compound 3.130, (1R,3s,5S)-3-(7-amino-3-(6-(2-fluorophenyl)pyridin-3-yl)-6-(methylsulfonyl)pyrazolo[1,5-a]pyrimidin-5-yl)-N-ethyl-8-azabicyclo[3.2.1]octane-8-carboxamide], the IC50 in test [1] (setting [5]) and in test [2] (setting [5]) was 100 to 1000 nM each time.
On to `CS(=O)(=O)c1c([C@@H]2C[C@H]3CC[C@@H](C2)N3C(=O)c2ccn[nH]2)nc2c(-c3ccc(-c4ccccc4F)nc3)cnn2c1N` [Compound 3.135, ((1R,3s,5S)-3-(7-amino-3-(6-(2-fluorophenyl)pyridin-3-yl)-6-(methylsulfonyl)pyrazolo[1,5-a]pyrimidin-5-yl)-8-azabicyclo[3.2.1]octan-8-yl)(1H-pyrazol-5-yl)methanone], for which the IC50 in test [1] (setting [5]) and in test [2] (setting [5]) was 1 to 100 nM each time.
With `COCCOCc1ccc(-c2cnn3c(N)c(C(C)=O)c([C@@H]4C[C@H]5CC[C@@H](C4)N5C(=O)c4nnc[nH]4)nc23)cn1` [Compound 7.31, 1-(5-((1R,3s,5S)-8-(4H-1,2,4-triazole-3-carbonyl)-8-azabicyclo[3.2.1]octan-3-yl)-7-amino-3-(6-((2-methoxyethoxy)methyl)pyridin-3-yl)pyrazolo[1,5-a]pyrimidin-6-yl)ethanone], the IC50 in test [1] (setting [3]) and in test [2] (setting [3]) was 1000 to 10000 nM each time.
Turning to `CC(=O)c1c([C@@H]2C[C@H]3CC[C@@H](C2)N3C(=O)c2cn[nH]c2)nc2c(-c3ccc(C(C)(C)O)nc3)cnn2c1N` [Compound 7.12, 1-(5-((1R,3s,5S)-8-(1H-pyrazole-4-carbonyl)-8-azabicyclo[3.2.1]octan-3-yl)-7-amino-3-(6-(2-hydroxypropan-2-yl)pyridin-3-yl)pyrazolo[1,5-a]pyrimidin-6-yl)ethanone], the IC50 in test [1] (setting [3]) and in test [2] (setting [3]) was 100 to 1000 nM throughout.
Regarding `CNc1c(S(C)(=O)=O)c([C@@H]2C[C@H]3CC[C@@H](C2)N3C(=O)c2nnc[nH]2)nc2c(-c3ccc(-c4ccccc4)nc3)cnn12` [Compound 8.41, ((1R,3s,5S)-3-(7-(methylamino)-6-(methylsulfonyl)-3-(6-phenylpyridin-3-yl)pyrazolo[1,5-a]pyrimidin-5-yl)-8-azabicyclo[3.2.1]octan-8-yl)(4H-1,2,4-triazol-3-yl)methanone], the IC50 in test [1] (Homo sapiens, PC-3, PC3 cells) fell in the range of 100 to 1000 nM; in test [2] (Homo sapiens, PC-3, PC3 cells), 1 to 100 nM.
With `CC(=O)c1c([C@@H]2C[C@H]3CC[C@@H](C2)N3C(=O)C2CCS(=O)(=O)N2)nc2c(-c3ccc(-c4ccccc4)nc3)cnn2c1N` (mixture of isomers) [Compound 1.1.4, (EXO)-3-[6-ACETYL-7-AMINO-3-(6-PHENYL-3-PYRIDINYL)PYRAZOLO[1,5-a]PYRIMIDIN-5-YL]-8-[(1,1-DIOXIDO-3-ISOTHIAZOLIDINYL)CARBONYL]-8-AZABICYCLO[3.2.1]OCTANE (MIX. OF 2 DIASTEREOMERS)], the IC50 in test [1] (setting [3]) and in test [2] (setting [3]) was 100 to 1000 nM each time.
In the case of `CS(=O)(=O)c1c([C@@H]2C[C@H]3CC[C@@H](C2)N3C(=O)c2nnc[nH]2)nc2c(-c3ccc(-c4c(F)cccc4F)nc3)cnn2c1N` [Compound 3.107, ((1R,3s,5S)-3-(7-amino-3-(6-(2,6-difluorophenyl)pyridin-3-yl)-6-(methylsulfonyl)pyrazolo[1,5-a]pyrimidin-5-yl)-8-azabicyclo[3.2.1]octan-8-yl)(4H-1,2,4-triazol-3-yl)methanone], the IC50 in test [1] (setting [5]) and in test [2] (setting [5]) was 1 to 100 nM throughout.
For the compound `CC(=O)c1c([C@@H]2C[C@H]3CC[C@@H](C2)N3C(=O)c2ccn[nH]2)nc2c(-c3ccc(-c4ccn(C)n4)nc3)cnn2c1N` [Compound 1.1.121, 1-(5-((1R,3s,5S)-8-(1H-pyrazole-5-carbonyl)-8-azabicyclo[3.2.1]octan-3-yl)-7-amino-3-(6-(1-methyl-1H-pyrazol-3-yl)pyridin-3-yl)pyrazolo[1,5-a]pyrimidin-6-yl)ethanone], the IC50 in test [1] (setting [3]) lay within 100 to 1000 nM; in test [2] (setting [3]), 1 to 100 nM.
For the compound `CS(=O)(=O)c1c([C@@H]2C[C@H]3CC[C@@H](C2)N3C(=O)CO)nc2c(-c3cnn(-c4ccccn4)c3)cnn2c1N` [Compound 3.124, 1-((1R,3s,5S)-3-(7-amino-6-(methylsulfonyl)-3-(1-(pyridin-2-yl)-1H-pyrazol-4-yl)pyrazolo[1,5-a]pyrimidin-5-yl)-8-azabicyclo[3.2.1]octan-8-yl)-2-hydroxyethanone], the IC50 in test [1] (setting [5]) lay in the range of 1000 to 10000 nM; in test [2] (setting [5]) it was 100 to 1000 nM.
As for `CC(=O)c1c([C@@H]2C[C@H]3CC[C@@H](C2)N3C(=O)c2cc(N)n[nH]2)nc2c(-c3ccc(C(O)(C(F)(F)F)C(F)(F)F)nc3)cnn2c1N` [Compound 7.79, 1-(7-amino-5-((1R,3s,5S)-8-(3-amino-1H-pyrazole-5-carbonyl)-8-azabicyclo[3.2.1]octan-3-yl)-3-(6-(1,1,1,3,3,3-hexafluoro-2-hydroxypropan-2-yl)pyridin-3-yl)pyrazolo[1,5-a]pyrimidin-6-yl)ethanone], the IC50 in test [1] (Homo sapiens, PC-3, PC3 cells) was in the range of 100 to 1000 nM; in test [2] (Homo sapiens, PC-3, PC3 cells), 100 to 1000 nM.
As to `CS(=O)(=O)c1c([C@@H]2C[C@H]3CC[C@@H](C2)N3c2noc(=O)[nH]2)nc2c(-c3ccc(-c4ccccc4)nc3)cnn2c1N` [Compound 8.74, 3-((1R,3s,5S)-3-(7-amino-6-(methylsulfonyl)-3-(6-phenylpyridin-3-yl)pyrazolo[1,5-a]pyrimidin-5-yl)-8-azabicyclo[3.2.1]octan-8-yl)-1,2,4-oxadiazol-5(4H)-one], the IC50 in test [1] (Homo sapiens, PC-3, PC3 cells) is more than 10000 nM; in test [2] (Homo sapiens, PC-3, PC3 cells) it was 1000 to 10000 nM.
Take `Cn1cc(-c2cnn3c(N)c(S(C)(=O)=O)c([C@@H]4C[C@H]5CC[C@@H](C4)N5C(=O)c4nnc[nH]4)nc23)cn1` [Compound 3.111, ((1R,3s,5S)-3-(7-amino-3-(1-methyl-1H-pyrazol-4-yl)-6-(methylsulfonyl)pyrazolo[1,5-a]pyrimidin-5-yl)-8-azabicyclo[3.2.1]octan-8-yl)(4H-1,2,4-triazol-3-yl)methanone]: the IC50 in test [1] (setting [5]) and in test [2] (setting [5]) was 1000 to 10000 nM throughout.
In the case of `CS(=O)(=O)c1c([C@@H]2C[C@H]3CC[C@@H](C2)N3C(=O)c2cn[nH]c2N)nc2c(-c3ccc(-c4ccccc4)nc3)cnn2c1N` [Compound 3.90, (5-amino-1H-pyrazol-4-yl)((1R,3s,5S)-3-(7-amino-6-(methylsulfonyl)-3-(6-phenylpyridin-3-yl)pyrazolo[1,5-a]pyrimidin-5-yl)-8-azabicyclo[3.2.1]octan-8-yl)methanone], the IC50 in test [1] (setting [5]) and in test [2] (setting [5]) was 1 to 100 nM in each case.
With `[2H]C1(O)CCCc2cc(-c3cnn4c(N)c(C(C)=O)c([C@H]5CC6CC[C@H](C5)N6C(=O)c5nnc[nH]5)nc34)cnc21` (stereo partly drawn) [Compound 7.57, DEUTERATED-(3- EXO)-3-[6-ACETYL-7- AMINO-3-(5,6,7,8- TETRAHYDRO-8- HYDROXY-3- QUINOLINYL- (D))PYRAZOLO[1,5- a]PYRIMIDIN-5-YL]-8- (4H-1,2,4-TRIAZOL-3- YLCARBONYL)-8- AZABICYCLO[3.2.1] OCTANE], the IC50 was in the range of 1 to 100 nM in test [1] (Homo sapiens, PC-3, PC3 cells) and 100 to 1000 nM in test [2] (Homo sapiens, PC-3, PC3 cells).
